Legend:
[1] = molecular target: T1, New Delhi metallo β lactamase-1 (NDM-1 bla) (Klebsiella pneumoniae, UniProt C7C422); assay: biochemical; parameters: beta-lactamase inhibition, fluorogenic substrate CDC-1 hydrolysis, initial velocity, 10 min preincubation
T1 construct: gene blaNDM-1
Protocol: (§1) 36 and imaged with an Odyssey SA near-infrared two-color laser imaging system, followed by staining with Coomassie brilliant blue. Assay for IC50 of β-Lactamase Inhibitor The IC50 was determined following the reported protocol with minor modifications. […] The initial velocity (V0) was calculated using the linear portions of the curves. Each experiment was triplicated. The IC50 was obtained by fitting a dose-response curve using Graph Pad Prism 7 software.

[2] = molecular target: TEM-1 β-lactamase (TEM-1 bla) (Escherichia coli, UniProt P62593); assay: biochemical; parameters: beta-lactamase inhibition, fluorogenic substrate CDC-1 hydrolysis, initial velocity, 10 min preincubation; conditions: read-out: IC50 (μM) ebselen TEM-1
Protocol: as §1

[3] = molecular target: T1, New Delhi metallo β lactamase-1 (NDM-1 bla); assay: in vitro β-lactamase inhibition assay (IC50, Figure S29; also cites ref […]); format: biochemical

T1 sequence (C7C422 29-270 limits assumed): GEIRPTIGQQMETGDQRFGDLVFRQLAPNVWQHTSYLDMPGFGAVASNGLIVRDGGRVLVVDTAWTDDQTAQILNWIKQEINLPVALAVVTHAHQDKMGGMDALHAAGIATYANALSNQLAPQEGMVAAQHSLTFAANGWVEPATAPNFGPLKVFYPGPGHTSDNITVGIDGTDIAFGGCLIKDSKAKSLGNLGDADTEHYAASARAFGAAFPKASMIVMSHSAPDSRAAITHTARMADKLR
Sequence of TEM-1 β-lactamase (TEM-1 bla) (P62593 24-286 limits assumed): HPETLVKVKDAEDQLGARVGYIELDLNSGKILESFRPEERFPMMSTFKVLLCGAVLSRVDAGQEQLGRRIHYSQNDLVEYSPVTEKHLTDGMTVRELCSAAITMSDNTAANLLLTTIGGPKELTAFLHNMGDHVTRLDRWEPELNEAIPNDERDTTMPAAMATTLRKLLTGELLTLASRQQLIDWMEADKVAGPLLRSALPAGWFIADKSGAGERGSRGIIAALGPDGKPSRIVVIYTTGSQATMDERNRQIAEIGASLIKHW

NC(=O)[C@@H]1CC[C@@H]2CN1C(=O)N2OS(=O)(=O)O [avibactam]
IC50 [1]: > 25 µM

O=c1c2ccccc2[se]n1-c1ccccc1 [ebselen]
IC50 [2]: > 25 µM
IC50 [3]: 0.508 µM

From PMC11791975, “Highly Sensitive In Vivo Imaging of Bacterial Infections with a Hydrophilicity‐Switching, Self‐Immobilizing, Near‐Infrared Fluorogenic β‐Lactamase Probe Enriched within Bacteria” (Advanced Science, 2024)
